The results in this text go back to ChEMBL document CHEMBL1240509, “Modulators of the hedgehog signaling pathway” (Bioorg Med Chem, 2010).

Bounds are passed on as bounds.

A short description of the first assay: Agonist activity at hedgehog receptor.
Settings: not given; call rule not given here
The class given is functional.
Consider `CN[C@H]1CC[C@H](N(Cc2cccc(-c3ccncc3)c2)C(=O)c2sc3ccccc3c2Cl)CC1`, for which the midpoint of the response, the EC50, lay at 3000 nM. `CC(C)CC[C@H](O)[C@@H](C)[C@H]1CC[C@H]2[C@@H]3CC=C4C[C@@H](O)CC[C@]4(C)[C@H]3CC[C@]12C` yielded a concentration for a half-maximal effect (EC50) of 200 nM.

Consider `C[C@H](CCCC(C)(C)O)[C@H]1CC[C@H]2[C@@H]3CC=C4C[C@@H](O)CC[C@]4(C)[C@H]3CC[C@]12C`, for which the EC50 stood at 1000 nM. `CC(C)[C@@H](O)CC[C@@H](C)[C@H]1CC[C@H]2[C@@H]3CC=C4C[C@@H](O)CC[C@]4(C)[C@H]3CC[C@]12C` came in with an EC50 of 3000 nM.

As for `CC(C)CCC[C@](C)(O)[C@H]1CC[C@H]2[C@@H]3CC=C4C[C@@H](O)CC[C@]4(C)[C@H]3CC[C@@]21C`, a half-maximal response (EC50) required 100 nM. Still for that read-out and setting: as for `c1ccc2c(Oc3nc(Nc4ccc(N5CCOCC5)cc4)c4ncn(C5CCCCC5)c4n3)cccc2c1` [PURMORPHAMINE], the figure is 1000 nM.

Another assay is described as follows: Inhibition of hedgehog receptor mediated Gli transcription.
Settings: not given
On to `Cc1c([C@H](C)[C@@H]2NC[C@@H](C)C[C@H]2O)ccc2c1C[C@H]1[C@H]2CC=C2C[C@@H](O)CC[C@@]21C` [VERATRAMINE], for which the EC50 result is “Not Active”.

The assay is the same for the next values; noted with them: read-out: EC50.
In the case of `CC1=C2C[C@H]3[C@@H](CC=C4C[C@@H](O)CC[C@@]43C)[C@@H]2CC[C@]12O[C@@H]1C[C@H](C)CN[C@H]1[C@H]2C` [CYCLOPAMINE], the EC50 was determined as 300 nM. Same read-out and setting: as for `CC1=C2C[C@H]3[C@@H](CC=C4C[C@@H](O[C@@H]5O[C@H](CO)[C@@H](O)[C@H](O)[C@H]5O)CC[C@@]43C)[C@@H]2CC[C@]12O[C@@H]1C[C@H](C)CN[C@H]1[C@H]2C` [CYCLOPOSINE], the figure is above 700 nM; as for `CC1=C2C(=O)[C@H]3[C@@H](CC=C4C[C@@H](O)CC[C@@]43C)[C@@H]2CC[C@]12O[C@@H]1C[C@H](C)CN[C@H]1[C@H]2C` [JERVINE], 500 nM.

Another assay is described as follows: Inhibition of hedgehog receptor mediated Ptch1 transcription.
Settings: not given
As to `CC1=C2C[C@H]3[C@@H](CC=C4C[C@@H](O)CC[C@@]43C)[C@@H]2CC[C@]12O[C@@H]1C[C@H](C)CN[C@H]1[C@H]2C` [CYCLOPAMINE], it took 300 nM to reach a half-maximal effect (EC50).

A further assay is described as follows: Antagonist activity at hedgehog receptor.
Settings: not given
The class given is functional.
For the compound `CC1=C2C[C@H]3[C@@H](CC=C4CC(=O)CC[C@@]43C)[C@@H]2CC[C@]12O[C@@H]1C[C@H](C)CN(CCNC(=O)CCCCCNC(=O)CCc3ccccc3)[C@H]1[C@H]2C`, the midpoint of inhibition, the IC50, lay at 20 nM.

Compound `CC1=C2C[C@H]3[C@@H](CC[C@@H]4C[C@H](NS(C)(=O)=O)CC[C@@]43C)[C@@H]2CC[C@@]2(C1)O[C@@H]1C[C@H](C)CN[C@@H]1[C@H]2C` had an IC50 of 7 nM.

With `CC1=C2C[C@H]3[C@@H](CC[C@@H]4Cc5n[nH]cc5C[C@@]43C)[C@@H]2CC[C@@]2(C1)O[C@@H]1C[C@H](C)CN[C@@H]1[C@H]2C`, the IC50 stood at 10 nM.

The compound `CC1=C2C[C@H]3[C@@H](CC[C@@H]4CNC(=O)CC[C@@]43C)[C@@H]2CC[C@@]2(C1)O[C@@H]1C[C@H](C)CN[C@@H]1[C@H]2C` registered an IC50 of 30 nM. Same read-out and setting: as for `CCCN[C@H]1CC[C@H](N(Cc2cccc(-c3ccncc3)c2)C(=O)c2sc3ccccc3c2Cl)CC1`, the figure is 20 nM; as for `COCCOC(=O)C1=C(C)NC2=C(C(=O)CC(c3ccccc3OC)C2)C1c1cccc(O)c1` (stereo not given), 1500 nM; as for `CN(C)c1ccccc1CN1CCCN(Cc2ccccc2N(C)C)C1c1ccncc1`, 5000 nM. Still for that read-out and setting: as for `c1cc(-c2sc(-c3ccncc3)c(-c3ccncc3)c2-c2ccncc2)ccn1`, the figure is 5000 nM.

With `CCOc1cc(C(=O)Nc2ccc(Cl)c(-c3nc4ccccc4[nH]3)c2)cc(OCC)c1OCC`, inhibition was half-maximal at 30 nM (IC50). Turning to `CC1=C2C[C@H]3[C@@H](CCC4=CC(=O)CC[C@@]43C)[C@@H]2CC[C@@]2(C1)O[C@@H]1C[C@H](C)CNC1[C@H]2C` (single isomer, unassigned), the IC50 was 200 nM. Compound `CCC(C)n1ncn(-c2ccc(N3CCN(c4ccc(OCC5COC(Cn6cncn6)(c6ccc(Cl)cc6Cl)O5)cc4)CC3)cc2)c1=O` (stereo not given) [ITRACONAZOLE] returned an IC50 of 800 nM. Same read-out and setting: as for `C[C@@]12C[C@H]3OC(=O)[C@@H]1CO[C@]14O[C@]5([C@H]2C1=O)[C@@](O)(CC[C@H]1[C@H]4C[C@H]2O[C@]24CC=CC(=O)[C@]14C)C(=O)O[C@@]35C` [PHYSALIN F], the figure is 660 nM. Still for that read-out and setting: as for `O=C(C[C@@H]1C/C=C/CCC(=O)O[C@H](c2ccccc2)CNC1=O)NCc1ccc(Cl)cc1` [ROBOTNIKININ], the figure is 3100 nM; as for `CS(=O)(=O)c1ccc(C(=O)Nc2ccc(Cl)c(-c3ccccn3)c2)c(Cl)c1` [VISMODEGIB], 13 nM.
